According to patent publication US5250542A, “Peripherally selective piperidine carboxylate opioid antagonists” (Eli Lilly and Company, priority 1992, dated 1993):
Structures can show the parent of a compound that is named as a salt. Where two headings read alike, the source gives them in different places.

How the values were obtained:
[1] = biological target: T1, opioid receptor (Mus musculus, UniProt P42866); assay: mouse writhing analgesis test: block of morphine-induced analgesia; format: in vivo, CF-1 male mice; set-up: unit not given here; conditions: dose of antagonist that reduced the inhibition of writhing produced by 1.25 mg/kg morphine sulfate to 50%; subcutaneous, 20 min before acetic acid
T1 construct: Five CF-1 male mice (Charles River, Portage, Mich.); from tissue; host or cells: living CF-1 male mice (in vivo test; endogenous receptor)
T1 sequence (P42866 whole entry): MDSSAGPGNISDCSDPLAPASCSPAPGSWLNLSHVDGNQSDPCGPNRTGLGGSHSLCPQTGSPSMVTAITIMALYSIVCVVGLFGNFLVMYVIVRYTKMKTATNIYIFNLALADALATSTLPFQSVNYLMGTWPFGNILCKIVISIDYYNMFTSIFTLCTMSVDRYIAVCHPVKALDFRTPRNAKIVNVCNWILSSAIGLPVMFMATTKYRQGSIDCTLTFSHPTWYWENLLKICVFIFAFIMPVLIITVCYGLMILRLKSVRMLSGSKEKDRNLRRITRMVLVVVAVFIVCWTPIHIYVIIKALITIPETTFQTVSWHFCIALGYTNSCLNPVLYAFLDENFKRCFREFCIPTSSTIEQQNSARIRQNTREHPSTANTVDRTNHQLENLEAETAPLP
Procedure: In order to determine in vivo opioid receptor antagonism, the mouse writhing analgesis test was used. Test compounds were measured for their ability to block morphine-induced analgesia.
Five CF-1 male mice (Charles River, Portage, Mich.), weighing approximately 20 g after being fasted overnight, were observed simultaneously for the writhing response. The writhing response was defined as a contraction of the abdominal musculature, followed by the extension of the hind limbs, and was induced by the intraperitoneal adminstration of 0.6% acetic acid in a volumne of 1 ml/100 g body weight. The observation period was 10 min. in duration, beginning 5 min. after injection of acetic acid. The percent inhibition of writhing was calculated from the average number of writhes in the control (non-drug) group. Each data point is the mean (±standarderror) for five mice. The ED50 was defined as the dose of agonist that inhibited mean writhing by 50%. […] Each mouse was only used once. All drugs were administered subcutaneously (1 ml/100 g bwt) 20 min. before the injection of acetic acid.

[2] = biological target: T2, peripheral opioid receptors (Mus musculus, UniProt P42866); assay: precipitated diarrhea in morphine-maintained mice (peripheral opioid activity) and comparison with the writhing test; format: in vivo; conditions: for Ratio (AD50 mouse writhing test / ED50 mouse diarrhea test): higher ratio = greater relative antagonism of peripheral opioid receptors; for ED50: mouse, 0.5 h, morphine-maintained mice, antagonist subcutaneous or oral, 30 min observation
T2 construct: Mice maintained (6 mice/cage) on 0.01M saccharin water with 1 g/1 morphine sulfate; from tissue; host or cells: living morphine-maintained mice (in vivo test; endogenous receptor)
T2 sequence (P42866 whole entry): as above
Procedure: Determinations of peripheral opioid activity were conducted. Mice maintained (6 mice/cage) on 0.01M saccharin water with 1 g/1 morphine sulfate for a minimum of 10 days with mice averaging 3.0^+ g water/mouse/day for at least three days are used as subjects. The morphine water was removed 45 min. prior to injection with the proposed opioid antagonist. Initial testing consisted of 5 mice/dose of compound. The antagonist was given by the subcutaneous or oral, route of administration,and the mice were placed in 11-14"×4 7/12 I.D. clear plastic cylinders with white paper towels used for a floor.
The mice were then monitored visually for 30 minutes post-injection for the presence of jumping and of diarrhea. Jumping was scored as positive if at least one jump occurred in 30 min. Diarrhea was scored as positive when feces were moist enough to stain the white paper at the base of the cylinder. After 30 minutes of testing, the mice were placed back in original cages, put back on morphine water, and not tested again for 48 hrs. Lower doses of the antagonist compounds were tested until threshold doses for diarrhea were determined. Diarrhea is a peripherally mediated sign of precipitated opiate abstinence.
The extent of the effect on peripheral activity compared to central activity of the present compounds can-be determined by comparing the AD50 for the mouse writhing test with the ED50 for the mouse diarrhea test. The higher the ratio, the greater the relative antagonism of the peripheral opioid receptors by a particular compound.

[3] = biological target: T3, mu receptor (Rattus norvegicus, UniProt P33535); assay: opioid receptor binding assay, [3H] NAL (tritiated naloxone), mu receptor; set-up: species or system rat (Male Sprague Dawley), brain minus cerebellum; conditions: for inhibition at 0.01 µM / inhibition at 0.1 µM: 20 min
T3 construct: rat whole brain minus cerebellum for mu was homogenized; from tissue; host or cells: brain of male Sprague Dawley rats, whole brain minus cerebellum, homogenate fraction
T3 sequence (P33535 whole entry): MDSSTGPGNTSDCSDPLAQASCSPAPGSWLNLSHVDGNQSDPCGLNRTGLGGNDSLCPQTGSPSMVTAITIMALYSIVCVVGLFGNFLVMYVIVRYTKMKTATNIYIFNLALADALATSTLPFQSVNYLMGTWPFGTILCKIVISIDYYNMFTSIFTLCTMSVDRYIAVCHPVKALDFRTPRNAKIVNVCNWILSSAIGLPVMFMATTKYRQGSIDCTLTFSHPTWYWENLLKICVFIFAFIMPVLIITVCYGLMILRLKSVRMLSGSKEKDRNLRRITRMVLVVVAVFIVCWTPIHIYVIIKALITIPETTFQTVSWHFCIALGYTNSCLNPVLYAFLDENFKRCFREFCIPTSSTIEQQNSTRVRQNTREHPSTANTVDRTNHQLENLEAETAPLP
Procedure: This assay was conducted by the following procedure.
Male Sprague Dawley rats for mu site experiments were sacrificed via decapitation and the brains were removed. The brain tissue, rat whole brain minus cerebellum for mu was homogenized in a Teflon and glass tissue homogenizer. A supernatant I, pellet IV, fraction was frozen in a nitrogen freezer at 1.33 g/ml concentration and stored for not longer than five weeks prior to use. Pellets were rehydrated with physiological buffer prior to use.
The reaction was initiated by the addition of the resuspended tissue which had been preincubated at 37° C. for 20 minutes. The reaction mixture was incubated in a 37° C. water bath for 20 minutes. The reaction was terminated by rapid filtration, (Brandel Cell Harvestor), through Whatman GF/B glass filters that had been presoaked in Krebs-Hepes buffer pH 7.4. The filters were then washed 2x with 5 ml of ice cold Krebs-Hepes buffer pH 7.4. Washed filters were placed in scintillation vials and 10 ml RedySolv, (Brandel), was added and samples counted in a Searle D-300 beta counter. Means and standard error statistics were calculated for triplicate experimental determinations in certain cases. The incubation time for the reaction mixture was 20 minutes at 37° C.
Ki values were calculated using a minitab statistical program according to the following formula: [formula] wherein IC50 is the concentration at which 50% of the ^3 H ligand is displaced by the test compounds and KD is the dissociation constant for the ^3 H ligand at the receptor site. KD can be determined as described by Bennett, "Methods in Binding Studies", Neurotransmitter Receptor Binding, Yamamura, et al., ed., p. 57-90, Raven Press, N.Y. (1978) incorporated herein by reference.
In the Table, column 1 sets forth the Example Number of the compound evaluated, column 2 the Ki value in nanomolar (nM) at the mu receptor and columns 3 and 4 the percent displacement by the test compound at the indicated concentration, i.e., 10 nm or 100 nm.

[4] = read-out: % displacement at 10 nM, 10 nM test compound, [3H] naloxone 0.5 nM
[5] = read-out: % displacement at 100 nM, 100 nM test compound, [3H] naloxone 0.5 nM

Structure (SMILES) | AD50 [1] | Ratio (AD50 mouse writhing test / ED50 mouse diarrhea test) [2] | ED50 [2] | Ki [3] | inhibition at 0.01 µM [3, 4] | inhibition at 0.1 µM [3, 5] | inhibition at 0.1 µM ([3]; read-out: % displacement at 100 nM) | inhibition at 0.01 µM ([3]; read-out: % displacement at 10 nM)
CCOC(=O)CNC(=O)C(CCN1CC[C@@](C)(c2cccc(O)c2)[C@@H](C)C1)c1ccccc1 (relative stereo) [Example 11, 2-[[4-4-(3-hydroxyphenyl)-3,4-dimethyl-1-piperidinyl]-1-oxo-2-phenylbutyl]amino]-acetic acid ethyl ester monohydrochloride] | 2.4 | 141 | 0.017 mg/kg | 0.3 nM | 81% | 89% | – | –
C[C@H]1CN(CCC(C(=O)NCC(=O)O)c2ccccc2)CC[C@@]1(C)c1cccc(O)c1 (relative stereo) [Example 12, 2-[[4-[4-(3-hydroxyphenyl)-3,4-dimethyl-1-piperidinyl]-2-phenyl-1-oxobutyl]amino]ethanoic acid monohydrate] | 40 | 2667 | 0.015 mg/kg | 1.89 nM | 84% | – | 94% | –
CCNC(=O)CNC(=O)C(CCN1CC[C@@](C)(c2cccc(O)c2)[C@@H](C)C1)c1ccccc1 (relative stereo) [Example 15, N-ethyl-2-[[4-[4-(3-hydroxyphenyl)-3,4-dimethyl-1-piperidinyl]]-2-phenyl-1-oxobutylamino]-acetamide monohydrochloride monohydrate] | > 40 | > 133 | 0.3 mg/kg | 1.07 nM | 99% | 100% | – | –
C[C@H]1CN(CCC(C(=O)NCCC(N)=O)C2CCCCC2)CC[C@@]1(C)c1cccc(O)c1 (relative stereo) [Example 17, monohydrochloride] | > 40 | > 667 | 0.06 mg/kg | 0.43 nM | 97% | 100% | – | –
CNC(=O)CCNC(=O)C(CCN1CC[C@@](C)(c2cccc(O)c2)[C@@H](C)C1)C1CCCCC1 (relative stereo) [Example 18, N-[3-(methylamino)-3-oxopropyl]-4-[4-(3-hydroxyphenyl)-3,4-dimethyl-1-piperidinyl]-2-cyclohexyl-butanamide monohydrochloride] | > 40 | > 888 | 0.045 mg/kg | 0.43 nM | 97% | – | – | –
C[C@H]1CN(CCC(C(=O)NCC(N)=O)C2CCCCC2)CC[C@@]1(C)c1cccc(O)c1 (relative stereo) [Example 20, N-(2-amino-2-oxoethyl)-4-[4-(3hydroxyphenyl)-3,4-dimethyl-1-piperidinyl]-2-cyclohexylbutanamide hydrochloride monohydrate] | 32.1 | 802 | 0.004 mg/kg | 0.78 nM | 98% | 100% | – | –
CNC(=O)CNC(=O)C(CCN1CC[C@@](C)(c2cccc(O)c2)[C@@H](C)C1)C1CCCCC1 (relative stereo) [Example 21, N-[2-(methylamino)-2-oxoethyl]-4-[4-(3-hydroxyphenyl)-3,4-dimethyl-1-piperidinyl]-2-cyclohexyl butanamide hydrochloride] | > 20 | > 125 | 0.16 mg/kg | 0.45 nM | 96% | 100% | – | –
CCNC(=O)CNC(=O)C(CCN1CC[C@@](C)(c2cccc(O)c2)[C@@H](C)C1)C1CCCCC1 (relative stereo) [Example 22, N-[2-(ethylamino)-2-oxoethyl]-4-[4-(3-hydroxyphenyl)-3,4-dimethyl-1-piperidinyl]-2-cyclohexyl butanamide hydrochloride] | > 40 | > 500 | 0.08 mg/kg | 0.33 nM | 100% | 96% | – | –
CCOC(=O)CCCNC(=O)C(CCN1CC[C@@](C)(c2cccc(O)c2)[C@@H](C)C1)C1CCCCC1 (relative stereo) [Example 23, 4-[2-cyclohexyl-4-[4-(3-hydroxyphenyl)-3,4-dimethyl-1-piperidinyl]-1-oxobutyl]amino]-butanoic acid ethyl ester monohydrochloride monohydrate] | > 20 | > 140 | 0.14 mg/kg | 1.65 nM | 100% | 96% | – | –
CNC(=O)CCCNC(=O)C(CCN1CC[C@@](C)(c2cccc(O)c2)[C@@H](C)C1)C1CCCCC1 (relative stereo) [Example 24, N-methyl-4-[[4-[4-(3-hydroxyphenyl)-3,4-dimethyl-1-piperidinyl]-2-cyclohexyl-1-oxobutyl]amino]butanamide monohydrochloride monohydrate] | > 40 | > 400 | 0.1 mg/kg | 0.45 nM | 100% | 100% | – | –
C[C@H]1CN(CCC(C(=O)NCCC(=O)OCc2ccccc2)C2CCCCC2)CC[C@@]1(C)c1cccc(O)c1 (relative stereo) [Example 25, 3-[[2-cyclohexyl-4-[4-(3-hydroxyphenyl)-3,4-dimethyl-1-piperidinyl]-1-oxobutyl]amino]propanoic acid phenylmethyl ester hydrochloride monohydrate] | 11.5 | 40 | 0.29 mg/kg | 0.22 nM | 100% | 100% | – | –
C[C@H]1CN(CCC(C(=O)NCCC(=O)O)C2CCCCC2)CC[C@@]1(C)c1cccc(O)c1 (relative stereo) [Example 26, 3-[4-[3,4-dimethyl-4-(-3-hydroxyphenyl)-1-piperidinyl]-2-cyclohexyl-1-oxobutylamino]-propanoic acid monohydrate] | 7.5 | 250 | 0.03 mg/kg | 1.17 nM | 76% | 91% | – | –
C[C@H]1CN(CCC(C(=O)NCC(=O)O)C2CCCCC2)CC[C@@]1(C)c1cccc(O)c1 (relative stereo) [Example 27, 2-[[2-cyclohexyl-4-[4-(3-hydroxyphenyl)-3,4-dimethyl-1-piperidinyl]-1-oxobutyl]amino]-acetic acid monohydrate] | 15.3 | 51 | 0.3 mg/kg | 0.91 nM | – | 99% | – | 92%
